The subject of experiment [1] is Pancreatic Cancer Cells (PaCa2). The experiment is described as follows: Real-time PCR Angiogenesis Array. The experiment is classed as cell-based. The method, then:
Experiments were carried out essentially as described above.
In general terms: In qPCR the cycle at which signal appears reflects the starting amount.

Experiment [2] concerns HepG2 (liver cancer) cells. The experiment is described as follows: Real-time PCR Diabetes Array. The experiment is classed as cell-based. The conditions noted are these: 100 μM Q10. The method, then:
The treatment was initiated on 1×10^5 cells per well, following the procedure utilized in the PaCa2 cells (above, Examples 9-11). However, the total amount of RNA that was extracted from these samples was lower than expected. Reverse transcription is normally done using 1 μg of total RNA (determined by measurement at 260 nm). The maximum volume that can be used per reverse transcription is 8 μl.

The next experiment has as its system various cell types. The experiment is described as follows: Induction of early apoptosis in oncogenic and normal cell types (Bcl-2, caspase, annexin V). The class given is cell-based. The protocol:
CoQ10 treatment of cells was carried out as described in detail below in the Materials and Methods. Induction of apoptosis was assessed in the treated cells by monitoring indicators of early apoptosis (e.g., Bcl-2 expression, caspase activation and by using annexin V assays) as described below. From these studies, the minimal CoQ10 dosage, e.g., concentration of CoQ10 and time of treatment, required to induce apoptosis in the panel of cell lines was determined.
Cells were cultured in T-75 flasks with relevant medium supplemented with 10% Fetal Bovine Serum (FBS), 1% PSA (penicillin, streptomycin, amphotericin B) (Invitrogen and Cellgro) in a 37° C. incubator with 5% CO2 levels until 70-80% confluence was reached. To harvest cells for treatment, flasks were primed with 1 mL Trypsin, aspirated, trypsinized with an additional 3 mL, and incubated at 37° C. for 3-5 minutes. Cells were then neutralized with an equal volume of media and the subsequent solution was centrifuged at […] for 8 minutes. The supernatant was aspirated and the cells were resuspended with 8.5 ml of media. A mixture of 500 ul of the resuspension and 9.5 ml of […] was read twice by a coulter counter and the appropriate number of cells to be seeded into each dish was determined. Control and concentration ranging from 0-200 μM groups were examined in triplicate. From a 500 μM CoQ-10 stock solution, serial dilutions were performed to achieve desired experimental concentration in appropriate dishes. Dishes were incubated in a 37° C. incubator with 5% CO2 levels for 0-72 hours depending on cell type and experimental protocol.
The volume of sample to load per well was determined using the raw mean concentration of protein obtained from the BCA protein assay. Approximately 30-60 μg of protein were loaded for each treatment time point. Proteins were run in triplicate on 12% Tris-HCl ready gels (Bio-Rad) or hand cast gels in 1× running buffer at 85 and 100 volts. Proteins were then transferred onto nitrocellulose paper for an hour at 100 volts, and blocked for another hour in a 5% milk solution. Membranes were placed in primary antibody (1 uL Ab:1000 uL TBST) (Cell Signaling) overnight at […] The following day, membranes were washed three times for ten minutes each with Tris-Buffered Saline Tween-20 (TBST), and secondary antibody (anti-rabbit; 1 uL Ab: 1000 uL TBST) was applied for an hour at […] Membranes were washed again three times for ten minutes with TBST and chemoluminescence using Pico or Femto substrate was completed (Pierce). Membranes were then developed at time intervals that produced the best visual results. After developing, membranes were kept in TBST at […] until Actin levels could be measured.
Cells were washed twice in PBS10× and resuspended in Binding Buffer (0.1 M HEPES, pH 7.4; 1.4 M NaCl; 25 mM CaCl2). Samples of 100 μl were added to a culture tube with 5 μl of annexin-PE dye or […]. The cells were mixed and incubated without light at room temperature for 15 minutes. After which, 400 μl of 1× Binding Buffer was added to each sample and they were subjected to analysis by flow cytometry.

Experiment [3] has as its system HAEC, MCF-7, HepG2 and PC-3 cell lines. The experiment is described as follows: OCR and ECAR, SeaHorse XF analyzer (data not shown). The class given is cell-based, human. To be noted: absence and/or presence of stressors (hyperglycemia, hypoxia, lactic acid). The protocol:
(SeaHorse Biosciences Inc, North Billerica, Mass.).
A similar comparison of OCR and ECAR values (data not shown) were determined in numerous other normal and cancer cells lines, including: HAEC (normal human aortic endothelial cells), MCF-7 (breast cancer), HepG2 (liver cancer) and highly metastatic PC-3 (prostate cancer) cell lines. […] Thus, the overall effect of CoQ10 in the treatment of cancer, including cell death, is an downstream effect of its collective influence on proteomic, genomic, metabolomic outcomes in concert with shifting of the cellular bioenergetics from glycolysis to mitochondrial OXPHOS.

The test system of another experiment is HASMC cells. The experiment is described as follows: Diabetes PCR array. The experiment is classed as cell-based, human. The method, then:
The HK-2 and HASMC cells are normally maintained in culture at 5.5 mM glucose, which is a concentration that corresponds to a range considered normal in human blood. However, in order to simulate a diabetic environment, both cell lines were subsequently maintained at 22 mM glucose, which corresponds to the range observed in human blood associated with chronic hyperglycemia. The cells were subsequently allowed to propagate over 3 passages so that the intracellular regulation processes were functionally adapted to mimic a diabetic state. The choice of cell line was based on the physiologic influence of diabetes on renal dysfunction and progression to end-stage renal disease (ESRD) in addition to the progressive pathophysiology of a compromised cardiovascular function.
The Diabetes PCR array (SABiosciences) offers a screen for 84 genes simultaneously.
A stringent analysis of the Real time PCR data of the HASMC cell samples on the Diabetes Arrays (Cat #PAHS-023E, SABiosciences Frederick Md.) was made to exclude all results where gene regulation was not at least a two-fold regulation over HASMC normal untreated cells with a p value of less than 0.05.

Each structure is given as a SMILES string.

`COC1=C(OC)C(=O)C(C/C=C(\C)CC/C=C(\C)CC/C=C(\C)CC/C=C(\C)CC/C=C(\C)CC/C=C(\C)CC/C=C(\C)CC/C=C(\C)CC/C=C(\C)CCC=C(C)C)=C(C)C1=O` [Q10, Coenzyme Q10]: in experiment [1] (100 uM Q10), the “angiogenesis array genes (AKT1, ANGPTL4 ... VEGFA, VEGFB as listed)” value was “modulated by Q10 treatment”. The “genes from the angiogenesis array whose expression is regulated” value in experiment [1] (100 μM Q10, genes: ANGPTL4, CDH5, FGF1, AKT1, ANPEP, CCL2, CXCL1, EDG1, EFNB2, EGF, ILIB, IL8, KDR, NRP1, PECAM1, PROK2, SPHK1, STAB1, VEGFA) is “A list of genes from the angiogenesis array whose expression is regulated”. The PPARGC1A regulation result in experiment [2] (HepG2, 48 hours) was “normalized or were slightly upregulated”. In experiment [2] (HepG2, 48 hours), the PRKAA1 regulation result is “normalized or were slightly upregulated”. Besides, in experiment [2] (HepG2 cells, genes: PPARGC1A, PRKAA1, SNAP25), the “genes regulated in the Diabetes Arrays” value is “List of genes regulated in the Diabetes Arrays when HepG2 cells”. In addition, the “Indication of Early apoptosis (Bcl-2, annexin V, or caspase activation)” value in the experiment with various cell types (BONE: Ewing's sarcoma (NCI), wrapped cell reads Extremely strong) is reported as “Extremely”; in the experiment with various cell types (BREAST: Mammary fiboblasts: 184A1 and 184B5) (Lawrence Berkeley)) it was “None”; in the experiment with various cell types (SKIN: Melanoma (Skmel 2)), “Very Strong”; in the experiment with various cell types (SKIN: Melanoma (Skmel 28)) it was “Strong”; with various cell types (SKIN: SCC, Squamous cell carcinoma), “Very Strong”. For the same compound, in the experiment on various cell types (keratinocytes, melanocytes vs SK-MEL-28, SK-MEL-2, SCC, PaCa2, HEP-G2, various levels), the “dose dependent response of cancer vs control cell lines” value is “induction of apoptosis and cell death in the cancer cells only”. The “efficacy of treatment by cell type” value in the experiment on various cell types (oncogenic cell lines of differing aggressiveness) is recorded as “greater in cell types that exhibited increased oncogenicity and/or greater metastatic potential”. Also, the “OCR and ECAR values” in experiment [3] was “shift in OCR and ECAR values representative of values observed in a normal cells under normal physiological conditions”. In the experiment on HASMC cells (HASMC cells), the “expression of CCL5” value was “significant decrease in the expression of CCL5”. For the same compound, the “expression of AGT, CEACAM1, INSR, SELL, IL-6, TNF, CCL5” value with HASMC cells (hyperglycemic HASMC cells) is “altered expression of genes”.

For the origin of these results see US10519504B2, “Methods for treatment of oncological disorders using epimetabolic shifters, multidimensional intracellular molecules, or environmental influencers” (Berg LLC, priority 2009, dated 2019).
